Calls of active or inactive are those of the source. The calls are words filed in the database; no cut-off is given here.

Here are results for six compounds from ChEMBL document CHEMBL5120872, “Synthesis and biological evaluation of novel 2-azido muramyl dipeptide as NOD2 agonistic adjuvants” (Bioorg Med Chem, 2022).

Series [1] deals with Peritoneal macrophage. The experiment in a line: Cytotoxicity against BALB/c mouse peritoneal macrophages assessed as reduction in cell viability at 20 ug incubated for 48 hrs by MTT assay. It is filed as toxicity, cell-based. Particulars: dose 20 µg.
The target in series [2] is Nucleotide-binding oligomerization domain-containing protein 2 (Homo sapiens) (UniProt Q9HC29). The experiment in a line: Agonist activity at NOD2 in HEK-Blue hNOD2 cells assessed as increase in SEAP activity at 20 ug incubated for 24 hrs by Quanti-blue assay. It is filed as cell-based. Particulars: filed as agonist, dose 20.0 µg.
Nucleotide-binding oligomerization domain-containing protein 2 (Homo sapiens), sequence (Q9HC29 whole entry, the tested form may be a part): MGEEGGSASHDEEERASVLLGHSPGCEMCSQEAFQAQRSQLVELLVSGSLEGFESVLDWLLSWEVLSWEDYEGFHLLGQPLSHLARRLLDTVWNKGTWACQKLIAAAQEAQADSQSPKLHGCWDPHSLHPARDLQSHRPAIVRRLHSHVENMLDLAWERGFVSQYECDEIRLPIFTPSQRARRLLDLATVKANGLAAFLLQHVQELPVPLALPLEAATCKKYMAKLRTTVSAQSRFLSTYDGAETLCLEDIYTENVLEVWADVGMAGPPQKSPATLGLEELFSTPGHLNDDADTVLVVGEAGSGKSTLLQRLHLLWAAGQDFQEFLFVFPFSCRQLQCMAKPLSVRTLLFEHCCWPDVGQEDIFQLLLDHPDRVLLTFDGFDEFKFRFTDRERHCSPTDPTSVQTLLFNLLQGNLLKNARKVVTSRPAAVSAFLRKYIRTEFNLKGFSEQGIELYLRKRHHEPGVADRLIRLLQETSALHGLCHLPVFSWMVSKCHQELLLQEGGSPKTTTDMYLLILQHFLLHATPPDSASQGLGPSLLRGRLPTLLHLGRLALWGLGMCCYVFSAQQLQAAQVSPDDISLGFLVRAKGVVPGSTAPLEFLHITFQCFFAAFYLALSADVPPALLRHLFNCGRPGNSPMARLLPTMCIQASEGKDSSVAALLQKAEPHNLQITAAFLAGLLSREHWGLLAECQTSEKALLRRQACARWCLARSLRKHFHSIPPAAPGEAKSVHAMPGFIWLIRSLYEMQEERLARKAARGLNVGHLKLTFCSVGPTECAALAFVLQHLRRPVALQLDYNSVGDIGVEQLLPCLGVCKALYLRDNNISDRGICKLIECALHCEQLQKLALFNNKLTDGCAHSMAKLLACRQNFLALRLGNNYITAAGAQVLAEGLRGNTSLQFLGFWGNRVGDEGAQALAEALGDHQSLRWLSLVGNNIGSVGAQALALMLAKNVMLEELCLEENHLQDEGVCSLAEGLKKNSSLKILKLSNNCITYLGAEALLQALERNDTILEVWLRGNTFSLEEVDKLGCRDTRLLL
Series [3] concerns Peritoneal macrophage. Briefly: Immunostimulatory activity in BALB/c mouse peritoneal macrophages assessed as increase in TNF-aplha production at 20 ug incubated for 48 hrs by sandwich ELISA method. Particulars: dose 20.0 µg. The format is functional, cell-based. (In general: An ELISA detects its analyte on a solid surface through an enzyme-linked reagent.)
The nature of series [4]: Induction of dengue virus antigen-induced immunogenicity in BALB/c mouse assessed as fold change in IgG production treated at 10 ug and booster dosed on 14th day measured after 28 days by ELISA method. It is filed as functional. As to conditions: dose 10 µg; time 28 day.
Series [5] in a line: Induction of dengue virus antigen-induced immunogenicity in BALB/c mouse assessed as fold change in IgG production treated at 20 ug and booster dosed on 14th day measured after 28 days by ELISA method. Particulars: dose 20 µg; time 28 day. It is filed as functional.
In series [6] the test system is Mus musculus. Briefly: Induction of dengue virus antigen-induced immunogenicity in BALB/c mouse assessed as […] associated IgG2a production in sera treated at 10 to 30 ug and booster dosed on 14th day measured after 28 days by ELISA method. As to conditions: dose 10-30 µg, time 28.0 day. It is filed as functional, organism-based.
Series [7] has as its system Splenocyte. Briefly: Induction of dengue virus antigen-induced immunogenicity in BALB/c mouse assessed as increase in CD8+ production in splenocyte treated at 20 ug and booster dosed on 14th day measured after 28 days by ELISA method. Particulars: dose 20.0 µg, time 28.0 day. The format is functional, organism-based.
In series [8] the test system is Splenocyte. Briefly: Induction of dengue virus antigen-induced immunogenicity in BALB/c mouse assessed as increase in CD4+ production in Splenocyte treated at 20 ug and booster dosed on 14th day measured after 28 days by ELISA method. Particulars: dose 20.0 µg, time 28.0 day. The format is functional, organism-based.
For series [9], the system named is Splenocyte. Briefly: Induction of dengue virus antigen-induced immunogenicity in BALB/c mouse assessed as increase in CD4+ production in Splenocyte treated at 1 to 30 ug and booster dosed on 14th day measured after 28 days by ELISA method. The format is functional, organism-based. As to conditions: dose 1-30 µg, time 28.0 day.
In series [10] the test system is Splenocyte. The experiment in a line: Induction of Con A-stimulated mouse splenocyte proliferation assessed as increase in T cell population incubated for 48 hrs by MTT assay. The format is functional, cell-based. Particulars: dose 10-20 µg, DDE = dose-dependent effect. For orientation: Tetrazolium dyes change colour on reduction, which living cells bring about.

Series [11] concerns Splenocyte. The experiment in a line: Induction of LPS-stimulated mouse splenocyte proliferation assessed as increase in B cell population incubated for 48 hrs by MTT assay. The format is functional, cell-based. Particulars: dose 10-20 µg, DDE = dose-dependent effect.
Series [12] relates to Splenocyte. Briefly: Induction of dengue virus antigen-induced immunogenicity in BALB/c mouse assessed as increase in CD8+ production in Splenocyte treated at 1 to 30 ug and booster dosed on 14 th day measured after 28 days by ELISA method. It is filed as functional, organism-based. As to conditions: dose 1-30 µg, time 28.0 day.
For series [13], the system named is Mus musculus. Briefly: Induction of dengue virus antigen-induced immunogenicity in BALB/c mouse assessed as decrease in IFNgamma level booster dosed on 14th day and measured on day 28 after 48 hrs restimulation with antigen by ELISA method. It is filed as functional, organism-based. As to conditions: dose 10-30 µM, time 28.0 day, DDE = dose-dependent effect.

In series [14] the test system is Mus musculus. The experiment in a line: Induction of dengue virus antigen-induced immunogenicity in BALB/c mouse assessed as increase in IL-2 level booster dosed on 14th day and measured on day 28 after 48 hrs restimulation with antigen by ELISA method. It is filed as functional, organism-based. As to conditions: dose 10-30 µg, time 28.0 day, DDE = dose-dependent effect.

Series [15] has as its system Mus musculus. Briefly: Induction of dengue virus antigen-induced immunogenicity in BALB/c mouse assessed as increase in IL-4 level booster dosed on 14th day and measured on day 28 after 48 hrs restimulation with antigen by ELISA method. As to conditions: dose 10-30 µg, time 28.0 day, DDE = dose-dependent effect. The format is functional, organism-based.
For series [16], the system named is Mus musculus. Briefly: Induction of dengue virus antigen-induced immunogenicity in BALB/c mouse assessed as increase in IL-1beta level treated at 10 to 20 ug and booster dosed on 14th day and measured on day 28 after 48 hrs restimulation with antigen by ELISA method. It is filed as functional, organism-based. As to conditions: dose 10-20 µg, time 28.0 day.

For the compound `CCCCCCCCOC(=O)CC[C@@H](NC(=O)[C@H](C)NC(=O)[C@@H](C)O[C@H]1[C@H](O)[C@@H](CO)O[C@H](OCc2ccccc2)[C@@H]1N=[N+]=[N-])C(N)=O`, the Activity result in series [1] was “Non-Toxic”. Moreover, the outcome in series [2] and in series [3] was Active.
For the compound `CC(=O)N[C@H]1C(O)O[C@H](CO)[C@@H](O)[C@@H]1O[C@H](C)C(=O)N[C@@H](C)C(=O)N[C@H](CCC(=O)O)C(N)=O` (stereo partly drawn) [MURAMYL DIPEPTIDE], the Activity entry in series [1] is reported as “Non-Toxic”. In addition, the outcome in series [2] and in [3] was Active. The “fold change (FC)” value in series [4] and in [5] was 5 in each case.
`C[C@H](NC(=O)[C@@H](C)O[C@H]1[C@H](O)[C@@H](CO)O[C@H](OCc2ccccc2)[C@@H]1N=[N+]=[N-])C(=O)N[C@H](CCC(=O)OCc1ccccc1)C(N)=O`: the Activity entry in series [1] was “Non-Toxic”; in [10], “Dde”; in series [11], “Dde”; in series [13] it was “Dde”; in series [14], “Dde”; in series [15] it was “Dde”. For the same compound, the outcome in [2], in series [3], in series [6], in series [7], in [8] and in series [9] was Active. Also, the outcome in [12] and in series [16] was Active. Moreover, the “fold change (FC)” value amounted to 8 in series [4] and 10 in [5].
Consider `C[C@H](NC(=O)[C@@H](C)O[C@@H]1[C@@H](N=[N+]=[N-])[C@@H](OCc2ccccc2)O[C@@H]2CO[C@@H](c3ccccc3)O[C@@H]12)C(=O)N[C@H](CCC(=O)OCc1ccccc1)C(N)=O`, for which the Activity entry in series [1] is recorded as “Non-Toxic”. In addition, the outcome in series [2] and in series [3] was Active.
With `CCCCCCCCCCCCCCOC(=O)CC[C@@H](NC(=O)[C@H](C)NC(=O)[C@@H](C)O[C@H]1[C@H](O)[C@@H](CO)O[C@H](OCc2ccccc2)[C@@H]1N=[N+]=[N-])C(N)=O`, in series [1], the Activity result was “Non-Toxic”. The result in series [2] and in series [3] was Active.
On to `C[C@H](NC(=O)[C@@H](C)O[C@H]1[C@H](O)[C@@H](CO)O[C@H](OCc2ccccc2)[C@@H]1N=[N+]=[N-])C(=O)N[C@H](CCC(=O)O)C(N)=O`, for which, in [1], the Activity result is on record as “Non-Toxic”. The result in series [2] and in series [3] was Active.
